Test results taken from PubChem BioAssay (NCI).
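GI50 marks 50% less growth. TGI: concentration producing complete growth inhibition.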

Legend:
Assay in all cases: NCI-60 cell line screen, 384-well format; in the data active = GI50 below about 0.43 µM; inactive = the rest
SNB-19 CNS = test system: SNB-19 CNS
SR leukemia = test system: SR leukemia
COLO 205 colon = test system: COLO 205 colon
MDA-MB-231 breast = test system: MDA-MB-231 breast
HOP-62 NSCLC = test system: HOP-62 NSCLC
HOP-92 NSCLC = test system: HOP-92 NSCLC
ACHN renal = test system: ACHN renal
SK-OV-3 ovarian = test system: SK-OV-3 ovarian
HCC-2998 colon = test system: HCC-2998 colon
HT29 colon = test system: HT29 colon
NCI-H322M lung = test system: NCI-H322M lung
EKVX NSCLC = test system: EKVX NSCLC
IGROV1 ovarian = test system: IGROV1 ovarian
OVCAR-5 ovarian = test system: OVCAR-5 ovarian
SW-620 colon = test system: SW-620 colon
OVCAR-4 ovarian = test system: OVCAR-4 ovarian
T-47D breast = test system: T-47D breast
NCI-H226 lung = test system: NCI-H226 lung
SK-MEL-28 melanoma = test system: SK-MEL-28 melanoma
NCI-H23 lung = test system: NCI-H23 lung
SN12C renal = test system: SN12C renal
HL-60(TB) leukemia = test system: HL-60(TB) leukemia
OVCAR-3 ovarian = test system: OVCAR-3 ovarian
PC-3 prostate = test system: PC-3 prostate
UACC-62 melanoma = test system: UACC-62 melanoma
SK-MEL-5 melanoma = test system: SK-MEL-5 melanoma
786-0 renal = test system: 786-0 renal
SK-MEL-2 melanoma = test system: SK-MEL-2 melanoma
MCF7 breast = test system: MCF7 breast
A549 NSCLC = test system: A549 NSCLC
UACC-257 melanoma = test system: UACC-257 melanoma
HS 578T breast = test system: HS 578T breast
DU-145 prostate = test system: DU-145 prostate
SF-295 CNS = test system: SF-295 CNS
SF-539 CNS = test system: SF-539 CNS
MDA-MB-468 breast = test system: MDA-MB-468 breast
A498 renal = test system: A498 renal
U251 glioblastoma = test system: U251 glioblastoma
M14 melanoma = test system: M14 melanoma
HCT-15 colon = test system: HCT-15 colon
NCI-H522 lung = test system: NCI-H522 lung
MDA-MB-435 melanoma = test system: MDA-MB-435 melanoma
RPMI-8226 leukemia = test system: RPMI-8226 leukemia
NCI/ADR-RES ovarian = test system: NCI/ADR-RES ovarian
MOLT-4 leukemia = test system: MOLT-4 leukemia
SF-268 CNS = test system: SF-268 CNS
BT-549 breast = test system: BT-549 breast
RXF 393 renal = test system: RXF 393 renal
TK-10 renal = test system: TK-10 renal
SNB-75 CNS = test system: SNB-75 CNS
CAKI-1 renal = test system: CAKI-1 renal
NCI-H460 NSCLC = test system: NCI-H460 NSCLC
CCRF-CEM leukemia = test system: CCRF-CEM leukemia
KM12 colon = test system: KM12 colon
OVCAR-8 ovarian = test system: OVCAR-8 ovarian
MALME-3M melanoma = test system: MALME-3M melanoma

O=c1[nH]c(-c2ccc(C(F)(F)F)cc2)nc2c1CSCC2
53 µM: TGI (MDA-MB-468 breast)
inactive: GI50 (SNB-19 CNS) > 100 µM | GI50 (SR leukemia) > 100 µM | GI50 (COLO 205 colon) > 100 µM | GI50 (MDA-MB-231 breast) > 100 µM | GI50 (HOP-62 NSCLC) 79.5 µM | GI50 (HOP-92 NSCLC) > 100 µM | GI50 (ACHN renal) > 100 µM | GI50 (SK-OV-3 ovarian) 14.7 µM | GI50 (HCC-2998 colon) > 100 µM | GI50 (HT29 colon) > 100 µM | GI50 (NCI-H322M lung) > 100 µM | GI50 (EKVX NSCLC) 24 µM | GI50 (IGROV1 ovarian) > 100 µM | GI50 (OVCAR-5 ovarian) > 100 µM | GI50 (SW-620 colon) > 100 µM | GI50 (OVCAR-4 ovarian) 0.818 µM | GI50 (T-47D breast) > 100 µM | GI50 (NCI-H226 lung) 13.3 µM | GI50 (SK-MEL-28 melanoma) > 100 µM | GI50 (NCI-H23 lung) 25.7 µM | GI50 (SN12C renal) > 100 µM | GI50 (HL-60(TB) leukemia) > 100 µM | GI50 (OVCAR-3 ovarian) 13.5 µM | GI50 (PC-3 prostate) > 100 µM | GI50 (UACC-62 melanoma) > 100 µM | GI50 (SK-MEL-5 melanoma) 52.5 µM | GI50 (786-0 renal) > 100 µM | GI50 (SK-MEL-2 melanoma) 72.9 µM | GI50 (MCF7 breast) > 100 µM | GI50 (A549 NSCLC) > 100 µM | GI50 (UACC-257 melanoma) > 100 µM | GI50 (HS 578T breast) > 100 µM | GI50 (DU-145 prostate) > 100 µM | GI50 (SF-295 CNS) > 100 µM | GI50 (SF-539 CNS) > 100 µM | GI50 (MDA-MB-468 breast) 7.03 µM | GI50 (A498 renal) 95.7 µM | GI50 (U251 glioblastoma) > 100 µM | GI50 (M14 melanoma) > 100 µM | GI50 (HCT-15 colon) > 100 µM | GI50 (NCI-H522 lung) 28.8 µM | GI50 (MDA-MB-435 melanoma) > 100 µM | GI50 (RPMI-8226 leukemia) 78.3 µM | GI50 (NCI/ADR-RES ovarian) > 100 µM | GI50 (MOLT-4 leukemia) 68.7 µM | GI50 (SF-268 CNS) 98.9 µM | GI50 (BT-549 breast) 30.5 µM | GI50 (RXF 393 renal) 13.5 µM | GI50 (TK-10 renal) > 100 µM | GI50 (SNB-75 CNS) 24.5 µM | GI50 (CAKI-1 renal) 3.83 µM | GI50 (NCI-H460 NSCLC) > 100 µM | GI50 (CCRF-CEM leukemia) 88.6 µM | GI50 (KM12 colon) > 100 µM | GI50 (OVCAR-8 ovarian) > 100 µM | GI50 (MALME-3M melanoma) 25 µM
> 100 µM: TGI (SNB-19 CNS) | TGI (SR leukemia) | TGI (COLO 205 colon) | TGI (MDA-MB-231 breast) | TGI (HOP-62 NSCLC) | TGI (HOP-92 NSCLC) | TGI (ACHN renal) | TGI (SK-OV-3 ovarian) | TGI (HCC-2998 colon) | TGI (HT29 colon) | TGI (NCI-H322M lung) | TGI (EKVX NSCLC) | TGI (IGROV1 ovarian) | TGI (OVCAR-5 ovarian) | TGI (SW-620 colon) | TGI (OVCAR-4 ovarian) | TGI (T-47D breast) | TGI (NCI-H226 lung) | TGI (SK-MEL-28 melanoma) | TGI (NCI-H23 lung) | TGI (SN12C renal) | TGI (HL-60(TB) leukemia) | TGI (OVCAR-3 ovarian) | TGI (PC-3 prostate) | TGI (UACC-62 melanoma) | TGI (SK-MEL-5 melanoma) | TGI (786-0 renal) | TGI (SK-MEL-2 melanoma) | TGI (MCF7 breast) | TGI (A549 NSCLC) | TGI (UACC-257 melanoma) | TGI (HS 578T breast) | TGI (DU-145 prostate) | TGI (SF-295 CNS) | TGI (SF-539 CNS) | TGI (A498 renal) | TGI (U251 glioblastoma) | TGI (M14 melanoma) | TGI (HCT-15 colon) | TGI (NCI-H522 lung) | TGI (MDA-MB-435 melanoma) | TGI (RPMI-8226 leukemia) | TGI (NCI/ADR-RES ovarian) | TGI (MOLT-4 leukemia) | TGI (SF-268 CNS) | TGI (BT-549 breast) | TGI (RXF 393 renal) | TGI (TK-10 renal) | TGI (SNB-75 CNS) | TGI (CAKI-1 renal) | TGI (NCI-H460 NSCLC) | TGI (CCRF-CEM leukemia) | TGI (KM12 colon) | TGI (OVCAR-8 ovarian) | TGI (MALME-3M melanoma)
